# Measured values as given in ChEMBL document CHEMBL6074638, “Stability studies of β-Amino- and β-Hydroxy difluoromethyl ketones in rat serum and rat liver microsomes” (Bioorg Med Chem Lett, 2024).
# Experiments:
# [1] = Stability in rat serum assessed as parent compound remaining measured after 30 mins by LC-MS analysis; assay type: ADME, cell-free; settings: read-out: Stability
# [2] = Metabolic stability in rat liver microsomes assessed as parent compound remaining measured after 30 mins in presence of NADPH by LC-MS/MS analysis; assay type: ADME, Microsome; settings: read-out: Stability
remaining at 0.5 h [1] [%],remaining at 0.5 h [2] [%],Structure (SMILES)
73,70.5,CC(=O)c1ccc(C(O)C(F)(F)C(=O)C23CC4CC(CC(C4)C2)C3)cc1 (configuration not stated)
88.5,< 1,COc1ccc(C(O)C(F)(F)C(=O)c2ccc3ccccc3c2)cc1 (configuration not stated)
87,2,O=C(c1ccc(Cl)cc1)C(F)(F)C(NCc1ccccc1)c1ccccc1 (configuration not stated)
71.5,4,CC(C)(C)OC(=O)NC(c1ccccc1)C(F)(F)C(=O)c1ccc2ccccc2c1 (configuration not stated)
100,2.5,CC(C)(C)OC(=O)NC(c1ccccc1)C(F)(F)C(=O)c1ccc2c(c1)OCO2 (configuration not stated)
85,3.5,O=C(c1ccc2ccccc2c1)C(F)(F)C(NCc1ccccc1)c1ccccc1 (configuration not stated)
48.5,< 1,O=C(C12CC3CC(CC(C3)C1)C2)C(F)(F)C(O)c1ccc(Cl)cc1 (configuration not stated)
100,2,C/C=C/C=C/C(NCc1ccccc1)C(F)(F)C(=O)c1ccc2ccccc2c1 (configuration not stated)
100,< 1,CC(C)(C)OC(=O)NC(c1cccc(Br)c1)C(F)(F)C(=O)c1ccc(Cl)cc1 (configuration not stated)
83,3,CC(C)(C)OC(=O)NC(c1ccc(Cl)cc1)C(F)(F)C(=O)c1ccc(Cl)cc1 (configuration not stated)
97,12.5,O=C(c1cccc(SCc2ccccc2)c1)C(F)(F)C(NCc1ccccc1)c1ccccc1 (configuration not stated)
82,< 1,O=C(c1ccc2ccccc2c1)C(F)(F)C(O)c1cccc(F)c1 (configuration not stated)
–,< 1,CC(C)(C)OC(=O)NC(c1cccc(F)c1)C(F)(F)C(=O)c1ccc(Cl)cc1 (configuration not stated)
< 1,63,CCC/C=C/C(O)C(F)(F)C(=O)C12CC3CC(CC(C3)C1)C2 (configuration not stated)
100,41.5,O=C(c1ccc2ccccc2c1)C(F)(F)CO
76,2,COc1ccc(C(Nc2ccc(F)cc2)C(F)(F)C(=O)c2ccc3ccccc3c2)cc1 (configuration not stated)
83.5,53,O=C(c1ccc2c(c1)OCO2)C(F)(F)C(O)c1ccccc1 (configuration not stated)
90.5,75.5,O=C(c1ccc2ccccc2c1)C(F)(F)C(O)/C=C/c1ccccc1 (configuration not stated)
85,1,O=C(c1ccc2ccccc2c1)C(F)(F)C(Nc1ccccc1)c1ccccc1 (configuration not stated)
98,< 1,CC(C)(C)NC(c1ccccc1)C(F)(F)C(=O)c1ccc2ccccc2c1 (configuration not stated)

remaining at 0.5 h [1] [%],remaining at 0.5 h [2] [%],Structure (SMILES)
100,7.5,COc1ccc(NC(c2ccc(OC)cc2)C(F)(F)C(=O)c2ccc3ccccc3c2)cc1 (configuration not stated)
96.5,< 1,O=C(c1ccc2ccccc2c1)C(F)(F)C(O)c1ccc(F)cc1 (configuration not stated)
97,98.5,O=C(c1ccc(Cl)cc1)C(F)(F)C(O)c1ccccc1 (configuration not stated)
61,10,COc1ccc(C(NC(=O)OC(C)(C)C)C(F)(F)C(=O)c2ccc3ccccc3c2)cc1 (configuration not stated)
66.5,85.5,COc1ccc(C(O)C(F)(F)C(=O)C23CC4CC(CC(C4)C2)C3)cc1 (configuration not stated)
85,11.5,O=C(c1ccc2c(c1)OCO2)C(F)(F)C(O)c1ccc(Cl)cc1 (configuration not stated)
86.5,< 1,CC(=O)c1ccc(C(O)C(F)(F)C(=O)c2ccc3ccccc3c2)cc1 (configuration not stated)
< 1,7.5,CC(C)(C)OC(=O)NC(c1ccc(Cl)cc1)C(F)(F)C(=O)c1ccc2ccccc2c1 (configuration not stated)
80.5,< 1,CC(C)(C)OC(=O)NC(c1ccc(F)cc1)C(F)(F)C(=O)c1ccc(Cl)cc1 (configuration not stated)
100,< 1,COc1ccc(C(Nc2ccccc2)C(F)(F)C(=O)c2ccc3ccccc3c2)cc1 (configuration not stated)
100,< 1,CC(C)(C)OC(=O)NC(c1ccc(F)cc1)C(F)(F)C(=O)c1ccc2ccccc2c1 (configuration not stated)
89,83,CC(C)(C)OC(=O)NC(c1ccc(Cl)cc1)C(F)(F)C(=O)c1ccc2c(c1)OCO2 (configuration not stated)
35.5,55,CC(C)(C)OC(=O)NC(c1cccc(Br)c1)C(F)(F)C(=O)c1ccc2ccccc2c1 (configuration not stated)
74,2,Cc1ccc(NC(c2ccc(F)cc2)C(F)(F)C(=O)c2ccc3ccccc3c2)cc1C (configuration not stated)
97.5,7.5,COc1cc2c(cc1OC)C(C(F)(F)C(=O)c1ccc(C(F)(F)F)cc1)NCC2 (configuration not stated)
100,< 1,O=C(C12CC3CC(CC(C3)C1)C2)C(F)(F)C(NCc1ccccc1)c1ccccc1 (configuration not stated)
99,< 1,CC(C)(C)OC(=O)NC(c1ccccc1)C(F)(F)C(=O)c1ccc(Cl)cc1 (configuration not stated)
48.5,27,CC(C)(C)OC(=O)NC(c1ccc(C(F)(F)F)cc1)C(F)(F)C(=O)c1ccc2ccccc2c1 (configuration not stated)
98,5,CC(C)(C)OC(=O)NC(c1cccc(F)c1)C(F)(F)C(=O)c1ccc2ccccc2c1 (configuration not stated)
